Experimental data from the NIST ThermoML archive (doi:10.1016/j.jct.2013.06.022).
Where “and” joins values, the source holds several entries; their conditions need not be identical. Equal entries are not always repeated. Numbers after ± are expanded uncertainties.

How the values were obtained:
[1] = Crystal; for vapor or sublimation pressure: Calculated from knudsen effusion weight loss; for Normal melting temperature: DTA
[2] = Molar enthalpy of transition or fusion; details: Crystal; DSC

COc1ccccc1C(N)=O [2-methoxybenzamide]
[1]
Details | vapor or sublimation pressure
335.12 K | 0.0001 ± 5e-06 kPa and 0.000101 ± 5e-06 kPa
337.18 K | 0.000126 ± 6e-06 kPa and 0.000124 ± 6e-06 kPa
339.16 K | 0.000155 ± 8e-06 kPa and 0.000153 ± 8e-06 kPa
341.12 K | 0.000198 ± 1e-05 kPa and 0.000195 ± 1e-05 kPa
343.16 K | 0.000248 ± 1.2e-05 kPa and 0.000241 ± 1.2e-05 kPa and 0.000249 ± 1.2e-05 kPa
345.16 K | 0.000305 ± 1.5e-05 kPa and 0.0003 ± 1.5e-05 kPa and 0.000309 ± 1.5e-05 kPa
347.11 K | 0.000389 ± 1.9e-05 kPa and 0.000382 ± 1.9e-05 kPa and 0.000385 ± 1.9e-05 kPa
349.15 K | 0.000486 ± 2.4e-05 kPa and 0.000474 ± 2.4e-05 kPa and 0.000483 ± 2.4e-05 kPa
351.16 K | 0.000594 ± 3e-05 kPa and 0.000581 ± 2.9e-05 kPa
353.12 K | 0.00075 ± 3.8e-05 kPa and 0.000738 ± 3.7e-05 kPa and 0.000736 ± 3.7e-05 kPa
355.17 K | 0.000924 ± 4.6e-05 kPa and 0.000926 ± 4.6e-05 kPa and 0.00091 ± 4.6e-05 kPa
357.16 K | 0.001122 ± 0.00012 kPa and 0.001121 ± 0.00012 kPa and 0.001106 ± 0.00011 kPa

Details | Molar enthalpy of transition or fusion [kcal/mol] | Normal melting temperature [°C]
[1] | – | 128.51 ± 0.42
[2] | 6.5 ± 0.153 | –

COc1cccc(C(N)=O)c1 [3-methoxybenzamide]
[1]
Details | vapor or sublimation pressure
345.11 K | 7.2e-05 ± 4e-06 kPa and 7.1e-05 ± 4e-06 kPa
347.12 K | 9.2e-05 ± 5e-06 kPa and 8.8e-05 ± 4e-06 kPa
349.16 K | 0.000112 ± 6e-06 kPa and 0.000117 ± 6e-06 kPa
351.12 K | 0.000143 ± 7e-06 kPa and 0.000142 ± 7e-06 kPa
353.16 K | 0.00018 ± 9e-06 kPa and 0.000175 ± 9e-06 kPa and 0.000178 ± 9e-06 kPa
355.16 K | 0.000219 ± 1.1e-05 kPa and 0.000225 ± 1.1e-05 kPa
357.12 K | 0.000283 ± 1.4e-05 kPa and 0.000287 ± 1.4e-05 kPa and 0.000286 ± 1.4e-05 kPa
359.16 K | 0.000357 ± 1.8e-05 kPa and 0.000346 ± 1.7e-05 kPa
361.14 K | 0.000432 ± 2.2e-05 kPa and 0.000428 ± 2.1e-05 kPa and 0.000443 ± 2.2e-05 kPa
363.13 K | 0.00055 ± 2.8e-05 kPa and 0.000547 ± 2.7e-05 kPa and 0.000546 ± 2.7e-05 kPa
365.17 K | 0.00068 ± 3.4e-05 kPa and 0.000682 ± 3.4e-05 kPa and 0.000658 ± 3.3e-05 kPa
367.13 K | 0.000844 ± 4.2e-05 kPa and 0.000848 ± 4.2e-05 kPa and 0.000842 ± 4.2e-05 kPa
369.17 K | 0.001047 ± 0.00011 kPa and 0.001014 ± 0.0001 kPa
371.15 K | 0.001291 ± 0.00014 kPa and 0.001251 ± 0.00013 kPa and 0.00125 ± 0.00013 kPa

Details | Molar enthalpy of transition or fusion [kcal/mol] | Normal melting temperature [°C]
[1] | – | 134.00 ± 0.41
[2] | 6.84 ± 0.153 | –

COc1ccc(C(N)=O)cc1 [4-methoxybenzamide]
[1]
Details | vapor or sublimation pressure
357.12 K | 0.000103 ± 5e-06 kPa
359.19 K | 0.000128 ± 6e-06 kPa and 0.000124 ± 6e-06 kPa
361.16 K | 0.000156 ± 8e-06 kPa and 0.000154 ± 8e-06 kPa
363.12 K | 0.000195 ± 1e-05 kPa and 0.000193 ± 1e-05 kPa
365.2 K | 0.000242 ± 1.2e-05 kPa and 0.000238 ± 1.2e-05 kPa
367.16 K | 0.000292 ± 1.5e-05 kPa and 0.00029 ± 1.5e-05 kPa and 0.000299 ± 1.5e-05 kPa
369.12 K | 0.000366 ± 1.8e-05 kPa and 0.000368 ± 1.8e-05 kPa and 0.000367 ± 1.8e-05 kPa
371.18 K | 0.000455 ± 2.3e-05 kPa and 0.000442 ± 2.2e-05 kPa and 0.000452 ± 2.3e-05 kPa
373.15 K | 0.000548 ± 2.7e-05 kPa and 0.000535 ± 2.7e-05 kPa and 0.000556 ± 2.8e-05 kPa
375.11 K | 0.000689 ± 3.4e-05 kPa and 0.000681 ± 3.4e-05 kPa and 0.000685 ± 3.4e-05 kPa
377.18 K | 0.000833 ± 4.2e-05 kPa and 0.000838 ± 4.2e-05 kPa and 0.000812 ± 4.1e-05 kPa
379.15 K | 0.001012 ± 0.0001 kPa and 0.000985 ± 4.9e-05 kPa and 0.000979 ± 4.9e-05 kPa

Details | Molar enthalpy of transition or fusion [kcal/mol] | Normal melting temperature [°C]
[1] | – | 167.49 ± 0.4
[2] | 6.94 ± 0.16 | –
